pIC50: −log10 of the molar value.
biological target: T1, pY641-STAT6 in PBMC (Homo sapiens, UniProt P42226); test: MSD-pSTAT-PBMC Assay (pSTAT6, IL-4 stimulated); assay type: cell-based; conditions: PBMC, compound 3 hrs, then 1 ng/mL IL-4 for 10 min; Table 115; read-out: STAT6
T1 construct: Cryopreserved Peripheral Blood Mononuclear Cells (PBMC) are from AllCells; host or cells: cryopreserved PBMC
T1 sequence (P42226 1-847): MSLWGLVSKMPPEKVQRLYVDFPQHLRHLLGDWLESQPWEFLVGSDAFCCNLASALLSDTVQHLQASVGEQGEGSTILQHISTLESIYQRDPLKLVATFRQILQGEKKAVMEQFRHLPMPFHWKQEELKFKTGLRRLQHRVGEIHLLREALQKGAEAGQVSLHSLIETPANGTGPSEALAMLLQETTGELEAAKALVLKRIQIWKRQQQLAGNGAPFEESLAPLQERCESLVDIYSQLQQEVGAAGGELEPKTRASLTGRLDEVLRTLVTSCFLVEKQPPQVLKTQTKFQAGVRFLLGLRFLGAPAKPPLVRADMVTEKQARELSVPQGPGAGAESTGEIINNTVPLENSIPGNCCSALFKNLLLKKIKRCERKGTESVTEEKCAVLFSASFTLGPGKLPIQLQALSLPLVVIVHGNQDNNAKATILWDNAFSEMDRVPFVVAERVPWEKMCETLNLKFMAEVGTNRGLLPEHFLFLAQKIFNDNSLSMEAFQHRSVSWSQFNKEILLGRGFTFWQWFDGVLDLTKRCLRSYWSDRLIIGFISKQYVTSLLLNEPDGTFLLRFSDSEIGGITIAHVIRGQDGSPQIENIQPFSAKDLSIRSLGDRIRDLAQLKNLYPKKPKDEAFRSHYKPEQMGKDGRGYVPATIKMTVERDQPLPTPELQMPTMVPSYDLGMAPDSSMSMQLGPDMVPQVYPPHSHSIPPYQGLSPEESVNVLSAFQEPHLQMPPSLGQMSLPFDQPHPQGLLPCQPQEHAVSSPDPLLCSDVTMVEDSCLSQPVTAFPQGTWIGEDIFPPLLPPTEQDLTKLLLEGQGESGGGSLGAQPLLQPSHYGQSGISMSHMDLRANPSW
Outline: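 Thawed human PBMC rested overnight in IMDM/10% FBS, then got compound for 3 hrs before a 10 min cytokine pulse: 1 ng/mL IL-4 for pSTAT6, 10 ng/mL IL-6 for pSTAT3. Lysates went to MSD sandwich capture on total STAT6 or STAT3 with phospho-specific detection. IC50 came from background-subtracted, DMSO-normalized signal.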

Compound | pIC50
COCCOC(=O)[C@H](C)NP(=O)(OCC(F)(F)F)[C@@H](F)c1ccc2sc(C(=O)N[C@H]3CCCC[C@H]4CC[C@@H](C(=O)N5CC(c6ccccc6)C(C#N)C56CC6)N4C3=O)cc2c1 (stereo in doubt) [Compound 377, 2-methoxyethyl (((R)-(2-(((3S,6S,10aS)-3-((6S,7R)-7-cyano-6-phenyl-4-azaspiro[2.4]heptane-4-carbonyl)-5-oxodecahydropyrrolo [1,2-a]azocin-6-yl)carbamoyl)benzo [b]thiophen-5-yl)fluoromethyl)(2,2,2-trifluoroethoxy)phosphoryl)-L-alaninate] | > 7.00
CCCOC(=O)[C@H](C)NP(=O)(Oc1ccccc1)[C@@H](F)c1ccc2sc(C(=O)N[C@H]3CCCC[C@H]4CC[C@@H](C(=O)N5C[C@H](c6cccnc6)[C@@H](C#N)C56CC6)N4C3=O)cc2c1 (some centres unmarked) [Compound 364] | > 7.00

same assay, conditions: STAT6, PBMC, compound 3 hrs, then 1 ng/mL IL-4 for 10 min; Table 115

Compound | pIC50
CC(C)COC(=O)[C@H](C)NP(=O)(Oc1ccccc1)[C@@H](F)c1ccc2sc(C(=O)N[C@H]3CCCC[C@H]4CC[C@@H](C(=O)N5C[C@@H](c6cccnc6)CC56CC6)N4C3=O)cc2c1 (stereo partly drawn) [Compound 417, isobutyl (((R)-fluoro(2-(((3S,6S,10aS)-5-oxo-3-((R)-6-(pyridin-3-yl)-4-azaspiro[2.4]heptane-4-carbonyl)decahydropyrrolo[1,2-a]azocin-6-yl)carbamoyl)benzo [b]thiophen-5-yl)methyl)(phenoxy)phosphoryl)-L-alaninate] | > 7.00
COCCOC(=O)[C@H](C)NP(=O)(Oc1ccccc1)[C@@H](F)c1ccc2sc(C(=O)N[C@H]3CCCC[C@H]4CC[C@@H](C(=O)N5C[C@H](c6ccccc6)[C@@H](C#N)C56CC6)N4C3=O)cc2c1 (stereo partly drawn) [Compound 375, 2-methoxyethyl (((R)-(2-(((3S,6S,10aS)-3-((6S,7R)-7-cyano-6-phenyl-4-azaspiro[2.4]heptane-4-carbonyl)-5-oxodecahydropyrrolo [1,2-a]azocin-6-yl)carbamoyl)benzo [b]thiophen-5-yl)fluoromethyl) (phenoxy)phosphoryl)-L-alaninate] | > 7.00
CCCOC(=O)[C@H](C)NP(=O)(Oc1ccccc1)[C@@H](F)c1ccc2sc(C(=O)N[C@H]3CCCC[C@H]4CC[C@@H](C(=O)N5C(=O)N(c6ccc(C(F)F)nc6)C(=O)C56CC6)N4C3=O)cc2c1 (stereo partly drawn) [Compound 332, propyl (((R)-(2-(((3S,6S,10aS)-3-(6-(6-(difluoromethyl)pyridin-3-yl)-5,7-dioxo-4,6-diazaspiro[2.4]heptane-4-carbonyl)-5-oxodecahydropyrrolo [1,2-a]azocin-6-yl)carbamoyl)benzo [b]thiophen-5-yl)fluoromethyl) (phenoxy)phosphoryl)-L-alaninate] | < 5.52
CCCOC(=O)[C@H](C)NP(=O)(Oc1ccccc1)[C@H](F)c1ccc2sc(C(=O)N[C@H]3CCC[C@H]4CC[C@@H](C(=O)N5C[C@@H](c6ccccc6)[C@H](C#N)C56CC6)N4C3=O)cc2c1 (stereo partly drawn) [Compound 387, propyl (((S)-(2-(((3S,6S,9aS)-3-((6R,7S)-7-cyano-6-phenyl-4-azaspiro[2.4]heptane-4-carbonyl)-5-oxooctahydro-1H-pyrrolo[1,2-a]azepin-6-yl)carbamoyl)benzo [b]thiophen-5-yl)fluoromethyl) (phenoxy)phosphoryl)-L-alaninate] | > 7.00
C[C@H](NP(=O)(Oc1ccccc1)[C@H](F)c1ccc2sc(C(=O)N[C@H]3CCC[C@H]4CC[C@@H](C(=O)N5C[C@H](c6ccccc6)[C@@H](C#N)C56CC6)N4C3=O)cc2c1)C(=O)OC1CC1 (stereo partly drawn) [Compound 350, cyclopropyl (((S)-(2-(((3S,6S,9aS)-3-((6S,7R)-7-cyano-6-phenyl-4-azaspiro[2.4]heptane-4-carbonyl)-5-oxooctahydro-1H-pyrrolo[1,2-a]azepin-6-yl)carbamoyl)benzo [b]thiophen-5-yl)fluoromethyl) (phenoxy)phosphoryl)-L-alaninate] | > 7.00
CCCOC(=O)[C@H](C)NP(=O)(Oc1c(C)cccc1C)[C@H](F)c1ccc2sc(C(=O)N[C@H]3CCC[C@H]4CC[C@@H](C(=O)N5C[C@@H](c6cccnc6)CC56CC6)N4C3=O)cc2c1 (stereo partly drawn) [Compound 359, propyl ((2,6-dimethylphenoxy) ((S)-fluoro(2-(((3S,6S,9aS)-5-oxo-3-((R)-6-(pyridin-3-yl)-4-azaspiro[2.4]heptane-4-carbonyl)octahydro-1H-pyrrolo[1,2-a]azepin-6-yl)carbamoyl)benzo [b]thiophen-5-yl)methyl)phosphoryl)-L-alaninate] | > 7.00
CCCOC(=O)[C@H](C)NP(=O)(Oc1ccccc1)C(F)c1ccc2sc(C(=O)N[C@H]3CCCC[C@H]4CC[C@@H](C(=O)N5C[C@@H](C#N)[C@H](c6ccn(C)c(=O)c6)C5)N4C3=O)cc2c1 (single isomer, unassigned) [Compound 319] | 5.52 to 6.00
CCCOC(=O)[C@H](C)NP(=O)(Oc1ccccc1)[C@@H](F)c1ccc2sc(C(=O)N[C@H]3CC[C@@H](C)C[C@H]4CC[C@@H](C(=O)N5C[C@@H](c6cccnc6)CC56CC6)N4C3=O)cc2c1 (stereo partly drawn) [Compound 470, propyl (((R)-fluoro(2-(((3S,6S,9R,10aR)-9-methyl-5-oxo-3-((R)-6-(pyridin-3-yl)-4-azaspiro[2.4]heptane-4-carbonyl)decahydropyrrolo[1,2-a]azocin-6-yl)carbamoyl)benzo [b]thiophen-5-yl)methyl)(phenoxy)phosphoryl)-L-alaninate] | > 7.00
CCCOC(=O)[C@H](C)NP(=O)(Oc1ccccc1)C(F)c1ccc2ccc(C(=O)N[C@H]3CCCC[C@H]4CC[C@@H](C(=O)N5CCC(c6ccn(C7CC7)c(=O)c6)C5)N4C3=O)cc2c1 (stereo partly drawn) [Compound 455, propyl (((7-(((3S,6S,10aS)-3-(3-(1-cyclopropyl-2-oxo-1,2-dihydropyridin-4-yl)pyrrolidine-1-carbonyl)-5-oxodecahydropyrrolo [1,2-a]azocin-6-yl)carbamoyl)naphthalen-2-yl)fluoromethyl) (phenoxy)phosphoryl)-L-alaninate] | < 5.52
CCCOC(=O)[C@H](C)NP(=O)(Oc1ccccc1)[C@@H](F)c1ccc2sc(C(=O)N[C@H]3CCCC[C@H]4CC[C@@H](C(=O)N5C(=O)N(c6cncc(OC)c6)C(=O)C56CC6)N4C3=O)cc2c1 (stereo partly drawn) [Compound 331, propyl (((R)-fluoro(2-(((3S,6S,10aS)-3-(6-(5-methoxypyridin-3-yl)-5,7-dioxo-4,6-diazaspiro[2.4]heptane-4-carbonyl)-5-oxodecahydropyrrolo [1,2-a]azocin-6-yl)carbamoyl)benzo [b]thiophen-5-yl)methyl)(phenoxy)phosphoryl)-L-alaninate] | 5.52 to 6.00
CCCOC(=O)[C@H](C)NP(=O)(Oc1ccccc1)[C@@H](F)c1ccc2sc(C(=O)N[C@H]3CCCC[C@H]4CC[C@@H](C(=O)N5C(=O)N(c6cncc(C(F)(F)F)c6)C(=O)C56CC6)N4C3=O)cc2c1 (stereo partly drawn) [Compound 330, propyl (((R)-(2-(((3S,6S,10aS)-3-(5,7-dioxo-6-(5-(trifluoromethyl)pyridin-3-yl)-4,6-diazaspiro[2.4]heptane-4-carbonyl)-5-oxodecahydropyrrolo [1,2-a]azocin-6-yl)carbamoyl)benzo [b]thiophen-5-yl)fluoromethyl) (phenoxy)phosphoryl)-L-alaninate] | < 5.52
CCCOC(=O)[C@H](C)NP(=O)(Oc1ccccc1)[C@@H](F)c1ccc2sc(C(=O)N[C@H]3CCCC[C@H]4CC[C@@H](C(=O)N5C[C@H](c6cncc(Cl)c6)[C@@H](C#N)C56CC6)N4C3=O)cc2c1 (single isomer, unassigned) [Compound 371] | 5.52 to 6.00
CCCOC(=O)[C@H](C)NP(=O)(Oc1ccccc1)[C@@H](F)c1ccc2sc(C(=O)N[C@H]3CCCC[C@H]4CC[C@@H](C(=O)N5C[C@H](c6cccc(OC)c6)[C@@H](C#N)C56CC6)N4C3=O)cc2c1 (single isomer, unassigned) [Compound 335] | > 7.00
CCCOC(=O)[C@H](C)NP(=O)(Oc1ccccc1)[C@@H](F)c1ccc2sc(C(=O)N[C@H]3CCCC[C@H]4CC[C@@H](C(=O)N5C[C@@H](c6cccc(C(F)F)c6)[C@H](C#N)C56CC6)N4C3=O)cc2c1 (single isomer, unassigned) [Compound 482] | > 7.00
CCCOC(=O)[C@H](C)NP(=O)(Oc1c(C)cccc1C)[C@@H](F)c1ccc2sc(C(=O)N[C@H]3CCC[C@H]4CC[C@@H](C(=O)N5C[C@@H](c6cccnc6)CC56CC6)N4C3=O)cc2c1 (stereo partly drawn) [Compound 481, propyl ((2,6-dimethylphenoxy) ((R)-fluoro(2-(((3S,6S,9aS)-5-oxo-3-((R)-6-(pyridin-3-yl)-4-azaspiro[2.4]heptane-4-carbonyl)octahydro-1H-pyrrolo[1,2-a]azepin-6-yl)carbamoyl)benzo [b]thiophen-5-yl)methyl)phosphoryl)-L-alaninate] | > 7.00

Source: patent publication US20250215029A1 (Recludix Pharma, Inc., priority 2022, published 2025)
